Read-outs that look alike come from different tables or passages of the source.
Assays:
[1] = test system: EMT6 (breast cell carcinoma); assay: In vitro proliferation assay, EMT6; type: cell-based, murine
Protocol: (§1) All cell lines were grown and propagated in RPMI medium at 37° C. in 5% CO2. Cultured cells were trypsinized and plated in triplicate at 10,000 cells/well in Falcon 24 well tissue culture plates. […] When control wells neared confluence, cell number was determined for each well as an average of two readings on a ZM Coulter Counter Results are expressed as the average cell number for each drug treatment group divided by the average cell number for the drug free control group (designated as % OF CONTROL) vs. the concentration of drug or analog.

B16 (malignant melanoma) = assay: In vitro proliferation assay, B16; type: cell-based, murine
Protocol: as §1

[2] = test system: RENCA (renal cell carcinoma); assay: In vitro proliferation assay, RENCA; type: cell-based, murine
Protocol: as §1

[3] = cited from earlier work
B16 melanoma cells = assay: Exposure time dependence study, B16; type: cell-based, murine; details: 10 μM; exposure 1, 2, 10, 24, 96 hours; counted at 96 hours
Protocol: In a series of exposure time dependence studies, B16 melanoma cells were trypsinized, suspended, and plated as before. […] Then at 1, 2, 10, 24, and 96 hours, the drug containing media was removed and replaced with fresh media containing only solvent. […] At the 96 hour time point, all groups were trypsinized and cell number was determined as before.

CT26 (colon carcinoma) = assay: In vitro proliferation assay, CT26; type: cell-based, murine; details: at 1000 nM against CT26 (p<0.01, data not shown)
Protocol: as §1

[4] = Calcemic activity, daily intraperitoneal injections in mice; type: in vivo, C57/B16 mice; details: for weight loss: 7 days; for blood ionized calcium: day 7
Protocol: Twenty-seven C57/B16 mice (n=3 per group), received daily intraperitoneal injections solution containing one of the three drugs at on of the following doses: […] (corresponding to 0.02, 0.2, or 2 mg/day respectively). Nine animals received daily intraperitoneal injections of solvent only to serve as control. Animal weights were monitored daily at the time of injection. On day 7, all animals were sacrificed and blood was collected via cardiac puncture and quantitatively analyzed for ionized calcium content at the Critical Care Lab at Johns Hopkins Hospital.

[5] = Hypercalcemic toxicity of wafers, intraflank vs intracranial; type: in vivo,  mice; details: 5 mg pCPP:SA wafer loaded 0.1%; for weight loss: 7 days; for blood ionized calcium levels: day 7
From the text: Animal weights were monitored daily and blood was collected for quantitative ionized calcium analysis via cardiac puncture on day 7 post-implantation.

Compound: C=C1/C(=C\C=C2/CCCC3(C)[C@@H]([C@H](C)CCCC(C)(C)O)CC[C@@H]23)C[C@@H](O)CC1O (some centres unmarked) [1,25 D3, 1,25-Dihydroxyvitamin D3]
- EC50 ([1]; Mus musculus, EMT6): 160 nM
- antiproliferative activity ([1]; at 100 nM against EMT6 (p<0.01)): significant antiproliferative activity
- EC50 (B16 (malignant melanoma); Mus musculus): 15 nM
- antiproliferative activity (B16 (malignant melanoma); at 10 nM against B16 (p<0.03)): significant antiproliferative activity
- EC50 ([2]; Mus musculus, Renca): 153 nM
- antiproliferative activity ([2]; at 10 nM against RENCA (p<0.03)): significant antiproliferative activity
- serum calcium ([3]; 60 ng/day i.c.v., after 6 days): rise in serum calcium
- weight loss ([3]; 120 ng/day i.c.v.): weight loss was observed
- condition of the animals ([3]; 240 ng/day i.c.v., by day 6): severely compromised
- exposure time dependence of antiproliferative activity (B16 melanoma cells): exposure time dependent
- antiproliferative activity (CT26 (colon carcinoma)): significant antiproliferative activity
- weight loss ([4]; 1 mg/kg/day i.p.): substantial weight loss
- blood ionized calcium ([4]; 1 mg/kg/day i.p.): dramatic rises in blood ionized calcium levels
- weight loss ([4]; 10 mg/kg/day i.p.): substantial weight loss
- blood ionized calcium ([4]; 10 mg/kg/day i.p.): dramatic rises in blood ionized calcium levels
- condition of the animals ([4]; 100 mg/kg/day i.p.): severely compromised
- weight loss ([5]; intracranial): substantial weight loss
- blood ionized calcium levels ([5]; intracranial): dramatic rises in blood ionized calcium levels
- weight loss ([5]; intraflank): substantial weight loss
- blood ionized calcium levels ([5]; intraflank): dramatic rises in blood ionized calcium levels

— patent US20080260834A1, “VITAMIN D3 ANALOG LOADED POLYMER FORMULATIONS FOR CANCER AND NEURODEGENERATIVE DISORDERS” (priority 2002, published 2008)
